# Laboratory results: ChEMBL document CHEMBL1126208, “Synthesis and antileukemic activity of etoposide a-ring analogs” (Bioorg Med Chem Lett, 1992)
# Columns and labels:
# [1] = tested on: HCT-116; experiment: Compound was tested for its in vitro cytotoxicity in HCT-VP35 cell line after 72 hours; type: functional, cell-based; conditions: Homo sapiens, HCT-116, 72 h
# [2] = Ratio of IC50 of HCT-VP35 to IC50 of HCT116.; type: functional
# [3] = tested on: HCT-116; experiment: Compound was tested for its in vitro cytotoxicity in HCT116 cell line after 72 hours; type: functional, cell-based; conditions: Homo sapiens, HCT-116, 72 h
# [4] = tested on: Mus musculus; experiment: Anti-P388 Leukemia activity after 70 mg/kg/injection ip administration on days 5 and 8 expressed as percent of median survival time of drug treated mice compared to saline treated controls.; type: functional; conditions: route intraperitoneal
# [5] = tested on: Mus musculus; experiment: Anti-P388 Leukemia activity determined when compound 150 mg/kg was administered ip on day 48 on mice expressed as the Long -term survivors (LTS); mice alive/total No of mice tested=6; type: functional; conditions: route intraperitoneal
# [6] = tested on: Mus musculus; experiment: Anti-P388 Leukemia activity after 140 mg/kg/injection ip administration on days 5 and 8 expressed as percent of median survival time of drug treated mice compared to saline treated controls.; type: functional; conditions: route intraperitoneal
# [7] = tested on: Mus musculus; experiment: Anti-P388 Leukemia activity after 280 mg/kg/injection ip administration on days 5 and 8 expressed as percent of median survival time of drug treated mice compared to saline treated controls.; type: functional; conditions: route intraperitoneal
# [8] = tested on: Mus musculus; experiment: Anti-P388 Leukemia activity determined when compound 150 mg/kg was administered ip on day 51 on mice expressed as the Long -term survivors (LTS); mice alive/total; total no of mice =6; type: functional; conditions: route intraperitoneal
# [9] = tested on: Mus musculus; experiment: Anti-P388 Leukemia activity determined when compound 150 mg/kg was administered ip on day 48 on mice expressed as the Long -term survivors (LTS); mice alive/total; No of mice tested=6; type: functional; conditions: route intraperitoneal
# [10] = tested on: Mus musculus; experiment: Anti-P388 Leukemia activity determined when compound 120 mg/kg was administered ip on day 26 on mice expressed as the Long -term survivors (LTS); mice alive/total No of mice tested=6; type: functional; conditions: route intraperitoneal
# [11] = Ratio of IC50 of HCT-VP35 to IC50 of HCT116; type: functional
# [12] = tested on: Mus musculus; experiment: Anti-P388 Leukemia activity determined when compound 150 mg/kg was administered ip on day 51 on mice expressed as the Long -term survivors (LTS); mice alive/total; type: functional; conditions: route intraperitoneal
# [13] = tested on: Mus musculus; experiment: Anti-P388 Leukemia activity determined when compound 120 mg/kg was administered ip on day 53 on mice expressed as the Long -term survivors (LTS); mice alive/total No of mice tested=6; type: functional; conditions: route intraperitoneal
Structure (SMILES),IC50 [1],Ratio [2],IC50 [3],T/C [4],LTS [5],T/C [6],T/C [7],LTS [8],LTS [9],LTS [10],Ratio [11],LTS [12],LTS [13]
COc1cc([C@@H]2c3cc4c(cc3[C@@H](O[C@@H]3O[C@@H]5CO[C@@H](C)O[C@H]5[C@H](O)[C@H]3O)[C@H]3COC(=O)[C@H]23)OCO4)cc(OC)c1O [ETOPOSIDE],1.78 µg/mL,5.2,0.34 µg/mL,,,,,,,,,,
CCCCCCCC(=O)Oc1cc2c(cc1OC(=O)CCCCCCC)[C@@H](O[C@@H]1O[C@@H]3CO[C@@H](C)O[C@H]3[C@H](O)[C@H]1O)[C@H]1COC(=O)[C@@H]1[C@@H]2c1cc(OC)c(O)c(OC)c1,21.7 µg/mL,2.7,8.03 µg/mL,120,5,125,135,,,,,,
COc1cc([C@@H]2c3cc(OC(=O)OCc4ccccc4)c(OC(=O)OCc4ccccc4)cc3[C@@H](O[C@@H]3O[C@@H]4CO[C@@H](C)O[C@H]4[C@H](O)[C@H]3O)[C@H]3COC(=O)[C@H]23)cc(OC)c1O,11.8 µg/mL,2,5.8 µg/mL,,,,,,,,,,
COc1cc2c(cc1OC)[C@@H](O[C@@H]1O[C@@H]3CO[C@@H](C)O[C@H]3[C@H](O)[C@H]1O)[C@H]1COC(=O)[C@@H]1[C@@H]2c1cc(OC)c(O)c(OC)c1,10.3 µg/mL,6.4,1.61 µg/mL,189,,189,228,4,,,,,
COc1cc([C@@H]2c3cc(O)c(O)cc3[C@@H](O[C@@H]3O[C@@H]4CO[C@@H](C)O[C@H]4[C@H](OC(=O)OCC(Cl)(Cl)Cl)[C@H]3OC(=O)OCC(Cl)(Cl)Cl)[C@H]3COC(=O)[C@H]23)cc(OC)c1OC(=O)OCC(Cl)(Cl)Cl,8.95 µg/mL,0.87,10.2 µg/mL,100,,100,105,,5,,,,
COc1cc([C@@H]2c3cc4oc(=S)oc4cc3[C@@H](O[C@@H]3O[C@@H]4CO[C@@H](C)O[C@H]4[C@H](O)[C@H]3O)[C@H]3COC(=O)[C@H]23)cc(OC)c1O,> 15.6 µg/mL,,> 15.6 µg/mL,130,,155,170,,,6,,,
COc1cc([C@@H]2c3cc(OC(C)=O)c(OC(C)=O)cc3[C@@H](O[C@@H]3O[C@@H]4CO[C@@H](C)O[C@H]4[C@H](O)[C@H]3O)[C@H]3COC(=O)[C@H]23)cc(OC)c1O,27.1 µg/mL,,19.6 µg/mL,144,,167,194,,,,1.4,4,
COc1cc([C@@H]2c3cc(O)c(O)cc3[C@@H](O[C@@H]3O[C@@H]4CO[C@@H](C)O[C@H]4[C@H](O)[C@H]3O)[C@H]3COC(=O)[C@H]23)cc(OC)c1O,> 15.6 µg/mL,,> 15.6 µg/mL,125,,130,165,,,,,,2
